The source of these data is patent publication US5726325A, “Tricyclic compounds” (Kyowa Hakko Kogyo Co., Ltd., priority 1995, dated 1998).

SMILES strings stand for the structures. Where only a bound is given, the exact number is not on record here.

Data set [1] relates to detrusor muscle. The data set can be described thus: Test Example 1: relaxation of guinea pig bladder strips contracted with 50 mM KCl. It is filed as cell-based, guinea pig (male albino Hartley). Conditions: Cavia porcellus; contraction induced by 50 mM KCl; concentration decreasing detrusor contraction by 50%. An excerpt: (§1) The activity of Compound (I) as a smooth muscle relaxant which is useful as a therapeutic agent for urinary incontinence can be observed, for example, using the following tests. In the following Test Examples 1 and 2, "IC50 " means the concentration of a test compound which induces the decrease in the contraction of detrusor muscle by 50%.
(§2) Male albino Hartley guinea pigs (350-550 g) were used as test animals. Each animal was exsanguinated to death under pentobarbital sodium anesthesia. The lower abdominal cavity was opened and its bladder was positioned. The connective tissue and the fat tissue around the bladder were removed, and the bladder was cleaned. After two pelvic nerves on the surface of the abdominal side of the bladder were dissected, the bladder was taken out on the entrance of ureter. The bladder was washed with a Krebs-Henseleit buffer [composition (mM): NaCl 118, KCl 4.7, MgSO4 1.2, KH2 PO4 1.2, CaCl2 2.5, NaHCO3 25, and D-glucose 11.1], and then put on a gauze patch soaked in the buffer in a Petri dish. The dome and the trigone of the bladder were dissected and discarded. The back of the bladder was cut vertically in the middle with scissors, and the bladder was put flat on the gauze patch. The dome tip and the side of the trigone of the bladder were dissected and discarded, and the mucosa of the bladder was removed. The back of the bladder was cut vertically to get 6 strips which are ca. 2.0 mm wide and ca. 10 mm long.
(§3) One end of each strip was fixed on a plastic supporter rod, and the other end was fixed on a clip connected to a suture thread. The supporter was fixed in 20 ml of an organ bath and the suture thread connected to the clip was fixed on a force-displacement transducer (NIHON KODEN TB-611T). The tissue was suspended in a Krebs-Henseleit buffer, and the bath solution was warmed to 37° C. and bubbled with a gas mixture of 5% CO2 and 95% O2. The pH of the solution was adjusted to about 7.4. The transducer was connected to a polygraph (NIHON KODEN AP-621G), and the change of tension was recorded on a recorder (YOKOGAWA type 3066). The polygraph was graduated by 0.5 g/cm.
After the tissue was incubated in the buffer for 15 minutes without preloading, tension was added thereto for about one hour. The preloading tension added was 1.5 g and it was relaxed to about 1 g. The tissue was washed at intervals of 15 minutes and the tension was adjusted to 1.5 g just before washing. The tension of the tissue was adjusted to be a steady state at 1 g. After this equilibrium time, 50 mM KCl (the whole content in the bath) was added, and the tissue was washed 10 minutes later. KCl was added to the tissue at intervals of 30 minutes, followed by washing 10 minutes later, and KCl was applied repeatedly until the developed tension induced by KCl becomes constant. When the tissue was confirmed to contract constantly by the application of KCl and relax to the steady state after washing, 50 mM KCl was applied again. After the tissue reached the steady state and the base line was obtained, a test compound was applied by the cumulative method (half-logarithmic incremence). The contact time at each concentration was 30 minutes. The activity of the compound was expressed as the maximum relaxation rate (%) of the tension induced by the agonist.

For data set [2], the system named is detrusor muscle. The data set can be described thus: Test Example 2: relaxation of guinea pig bladder strips, rhythmical contraction induced by 15 mM KCl. It is filed as cell-based, guinea pig (male albino Hartley). The settings on record: Cavia porcellus, concentration decreasing detrusor contraction by 50%.
Source text: as §1, §2, §3
The effect of a smooth muscle relaxant varies with the concentration of KCl based on the difference of an action mechanism. In the following Test Example, KCl was used at a concentration different from that in Test Example 1.
A sample of the excised bladder was prepared in the same manner as in Test Example 1, and the tension of the preparation was measured. After the tension of the tissue was adjusted to be a steady state at 1 g, 15 mM KCl was applied. After the rhythmical contraction was confirmed to appear by KCl, the tissue was washed. Then, 15 mM KCl was applied again. After the rhythmical contraction took place constantly and the tissue reached the steady state, a test compound was applied by the cumulative method (half-logarithmic incremence). The contact time at each concentration was 30 minutes. The activity of the compound was expressed as the maximum relaxation rate (%) of the tension induced by the agonist.

Data set [3] concerns bladder. The data set can be described thus: Test Example 3: vesical contraction interval in anesthetized rats, intravenous. It counts as in vivo, rat (female SD strain). The settings on record: 1 mg/kg i.v., average over 20 minutes, relative to pre-administration value. From the text:
Female SD strain rats (120-180 g) were used as test animals. Each animal was anesthetized by subcutaneous administration of 1 g/kg urethane. A catheter was inserted into the trachea to secure respiration. A polyethylene cannula (PE50) was inserted into the bladder from the entrance of the urethra and the urethra was ligated at the base. A catheter for blood pressure measurement was inserted into the right carotid artery, and a cannula for drug administration was inserted into the right jugular vein. The arterial catheter and the vesical catheter were connected to pressure transducers to measure the blood pressure and the intravesical pressure. After the bladder was stabilized over about 15 minutes, physiological saline was injected into the bladder at a volume of 0.2-0.7 ml to induce the rhythmical contraction almost once a minute. […]
By this examination method, the effect of the test compounds on both blood pressure and vesical contraction can be evaluated. The blood pressure was measured 5, 15, and 30 minutes after the test compound was injected into the vein. […] The change of average contraction interval (time between contractions) over 20 minutes was expressed as the relative value based on the pre-administration value which was regarded as 100.

A short description of data set [4]: Test Example 3: arterial blood pressure in anesthetized rats, intravenous. It counts as in vivo, rat (female SD strain). Conditions: 1 mg/kg i.v. An excerpt:
Female SD strain rats (120-180 g) were used as test animals. Each animal was anesthetized by subcutaneous administration of 1 g/kg urethane. A catheter was inserted into the trachea to secure respiration. A polyethylene cannula (PE50) was inserted into the bladder from the entrance of the urethra and the urethra was ligated at the base. A catheter for blood pressure measurement was inserted into the right carotid artery, and a cannula for drug administration was inserted into the right jugular vein. The arterial catheter and the vesical catheter were connected to pressure transducers to measure the blood pressure and the intravesical pressure. After the bladder was stabilized over about 15 minutes, physiological saline was injected into the bladder at a volume of 0.2-0.7 ml to induce the rhythmical contraction almost once a minute. After the contraction of the bladder started, the contraction pattern was stabilized for 30-45 minutes, followed by intravenous administration of a test compound.
By this examination method, the effect of the test compounds on both blood pressure and vesical contraction can be evaluated. The blood pressure was measured 5, 15, and 30 minutes after the test compound was injected into the vein. Micturition contraction was induced by injecting physiological saline into the bladder. The change of average contraction interval (time between contractions) over 20 minutes was expressed as the relative value based on the pre-administration value which was regarded as 100.

For data set [5], the system named is bladder. The data set can be described thus: Test Example 4: micturition contraction interval in rats under partial restraint, oral. It is filed as in vivo, rat (male SD strain). The settings on record: Rattus norvegicus, pre-administration = 100; for response vs control in vivo at 3 mg/kg: 3 mg/kg oral; for response vs control in vivo at 1 mg/kg: 1.0 mg/kg oral, second part of Table 4; for response vs control in vivo at 0.1 mg/kg: 0.1 mg/kg oral. From the text: As a control compound, cromakalim was used.

As to `CC(O)(C(=O)Nc1cccc2c1C(=O)c1ccccc1CO2)C(F)(F)F` (stereo not shown) [Compound 1, 1-(3,3,3-Trifluoro-2-hydroxy-2-methylpropanoylamino)-6,11-dihydrodibenz[b,e]oxepin-11-one], the IC50 (in general, the midpoint of a concentration-inhibition curve) amounted to 1.7 µM in data set [1] and 2400 nM in data set [2]. In addition, the “Change of contraction interval” value in data set [3] is listed as “+150%”. Further, the “Change of average arterial blood pressure” value in data set [4] (5 min), in data set [4] (15 min) and in data set [4] (30 min) was “+5%” throughout. Also, the response vs control in vivo at 3 mg/kg in data set [5] (1 hr) was determined as 136%; in data set [5] (2 hr) it was 148%; in data set [5] (3 hr), 134%; in data set [5] (4 hr), 122%; in data set [5] (5 hr) it was 117%.

In the case of `CC(O)(C(=O)Nc1ccc2c(c1)OCc1occc1C2=O)C(F)(F)F` (stereo not shown) [Compound 10, 7-(3,3,3-Trifluoro-2-hydroxy-2-methylpropanoylamino)-4,10-dihydrofuro[2,3-c][1]benzoxepin-4-one], the IC50 in data set [1] came out at 10 µM; in data set [2] it was 1900 nM. Besides, the response vs control in vivo at 1 mg/kg in data set [5] (1 hr after administration) was 132 ± 11.2%; in data set [5] (2 hr after administration), 142 ± 17.5%; in data set [5] (3 hr after administration), 158 ± 22.3%; in data set [5] (4 hr after administration), 174 ± 29.9%; in data set [5] (5 hr after administration), 183 ± 42.7%.

Regarding `CC(O)(C(=O)Nc1cccc2c1C(=O)c1occc1CO2)C(F)(F)F` (stereo not shown) [Compound 15, 9-(3,3,3-Trifluoro-2-hydroxy-2-methylpropanoylamino)-4,10-dihydrofuro[3,2-c][1]benzoxepin-10-one], the IC50 in data set [1] worked out at 7.1 µM; in data set [2], 9400 nM. The response vs control in vivo at 1 mg/kg in data set [5] (1 hr after administration) stood at 130 ± 9.5%; in data set [5] (2 hr after administration), 128 ± 5.3%; in data set [5] (3 hr after administration) it was 107 ± 16.5%; in data set [5] (4 hr after administration), 121 ± 11.4%; in data set [5] (5 hr after administration), 135 ± 12.6%.

Regarding `CC(O)(C(=O)Nc1ccc2c(c1)C(=O)c1sccc1CO2)C(F)(F)F` (stereo not shown) [Compound 16, 8-(3,3,3-Trifluoro-2-hydroxy-2-methylpropanoylamino)-4,10-dihydrothieno[3,2-c][1]benzoxepin-10-one], the IC50 in data set [1] is greater than 10 µM; in data set [2], 1400 nM. Moreover, the response vs control in vivo at 1 mg/kg in data set [5] (1 hr after administration) amounted to 118 ± 7.9%; in data set [5] (2 hr after administration), 132 ± 14.2%; in data set [5] (3 hr after administration) it was 119 ± 9.8%; in data set [5] (4 hr after administration), 127 ± 7.1%; in data set [5] (5 hr after administration) it was 137 ± 12.6%.

`CC(O)(C(=O)Nc1cccc2c1C(=O)c1cccc(F)c1CO2)C(F)(F)F` (stereo not shown) [Compound 20, 7-Fluoro-1-(3,3,3-trifluoro-2-hydroxy-2-methylpropanoylamino)-6,11-dihydrodibenz[b,e]oxepin-11-one]: the IC50 in data set [1] turned out to be 2.3 µM; in data set [2], 6000 nM. The response vs control in vivo at 1 mg/kg in data set [5] (1 hr after administration) turned out to be 121 ± 3.9%; in data set [5] (2 hr after administration) it was 147 ± 9.9%; in data set [5] (3 hr after administration) it was 148 ± 20%; in data set [5] (4 hr after administration), 156 ± 19.6%; in data set [5] (5 hr after administration), 142 ± 15.8%.

As to `C[C@](O)(C(=O)Nc1cccc2c1C(=O)c1sccc1CO2)C(F)(F)F` [Compound 33, (S)-9-(3,3,3-trifluoro-2-hydroxy-2-methylpropanoylamino)-4,10-dihydrothieno[3,2-c][1]benzoxepin-10-one], the IC50 in data set [1] was 1.1 µM; in data set [2], 2700 nM. Besides, the response vs control in vivo at 0.1 mg/kg came out at 135 ± 21.7% in data set [5] (1 hr after administration); 146 ± 25.5% in data set [5] (2 hr after administration); 143 ± 24.4% in data set [5] (3 hr after administration); 156 ± 30.6% in data set [5] (4 hr after administration); 161 ± 37.4% in data set [5] (5 hr after administration).

Regarding `C[C@](O)(C(=O)Nc1cccc2c1C(=O)c1ccoc1CO2)C(F)(F)F` [Compound 35, (S)-5-(3,3,3-Trifluoro-2-hydroxy-2-methylpropanoylamino)-4,10-dihydrofuro[2,3-c][1]benzoxepin-4-one], the IC50 was 31 µM in data set [1] and 1000 nM in data set [2]. In addition, the response vs control in vivo at 1 mg/kg in data set [5] (1 hr after administration) is 123 ± 8.8%; in data set [5] (2 hr after administration) it was 124 ± 5.7%; in data set [5] (3 hr after administration) it was 131 ± 9.8%; in data set [5] (4 hr after administration), 138 ± 11%; in data set [5] (5 hr after administration), 144 ± 8.9%.

`C[C@](O)(C(=O)Nc1ccc2c(c1)OCc1occc1C2=O)C(F)(F)F` [Compound 37, (S)-7-(3,3,3-Trifluoro-2-hydroxy-2-methylpropanoylamino)-4,10-dihydrofuro[2,3-c][1]benzoxepin-4-one]: the IC50 in data set [1] turned out to be 4.3 µM; in data set [2] it was 200 nM. The response vs control in vivo at 1 mg/kg turned out to be 114 ± 10.7% in data set [5] (1 hr after administration); 128 ± 6.5% in data set [5] (2 hr after administration); 126 ± 6.5% in data set [5] (3 hr after administration); 140 ± 10.2% in data set [5] (4 hr after administration); 144 ± 11.1% in data set [5] (5 hr after administration).

Turning to `CC(O)(C(=O)Nc1ccc2c(c1)C(=O)c1ccccc1CC2)C(F)(F)F` (stereo not shown) [Compound 53, 3-(3,3,3-Trifluoro-2-hydroxy-2-methylpropanoylamino)-10,11-dihydro-5H-dibenzo[a,d]cyclohepten-5-one], the IC50 in data set [1] is greater than 10 µM; in data set [2], 2900 nM. The response vs control in vivo at 1 mg/kg in data set [5] (1 hr after administration) stood at 108 ± 9.7%; in data set [5] (2 hr after administration), 134 ± 12%; in data set [5] (3 hr after administration), 148 ± 14%; in data set [5] (4 hr after administration), 155 ± 11.9%; in data set [5] (5 hr after administration), 168 ± 11.8%.
